Data taken from US12559492B2, “BRAF degraders” (C4 Therapeutics, Inc., priority 2020, dated 2026).

Target: BRAF^V600E protein (Homo sapiens, UniProt P15056, V600E)
Test: HiBiT cellular BRAF V600E degradation assay
Assay type: cell-based
Conditions: 24 h incubation; for DC50: A375.10 cells (HiBiT tag knocked in at N-terminal of BRAF V600E), concentration at which 50% of total cellular BRAF V600E is degraded; for Emax: read-out: HiBit 24 h Emax
Excerpt: DMEM no-phenol red medium supplemented with L-glutamine was purchased from (Corning). Fetal bovine serum (FBS) was purchased from Gibco (Grand Island, NY, USA). Nano-Glo® HiBiT Lytic Assay Buffer & Reagents were purchased from Promega (Madison, WI, USA). […] Cell culture flasks and 384-well black flat-bottom polystyrene TC-treated microplates were acquired from Corning (Corning, NY, USA).
HiBiT Cellular BRAFv^600E Degradation Assay
Prior to the assay, the A375.10 cell line is maintained in DMEM no-phenol red medium supplemented with 10% fetal bovine serum (FBS). […] Briefly, test compounds were added to the 384-well plate from a top concentration of 10 μM with 11 half log dilutions of compound, plated in duplicate. Then, 30 uL of a suspension of A375.10 cell lines was dispensed into columns 1-24 of the 384-well plates at a cell density of 7500 cells per well. The plates were kept at 37° C. with 5% CO2 for the duration of the assay (6 or 24 hr). After the desired incubation time with compound, 30 uL of Nano-Glo® HiBiT Lytic Buffer containing LgBiT protein (diluted 1:100) and luminescence substrate (diluted 1:50) were added to the cells in columns 1-23 of the assay plate. The plate was the incubated for 30 min on the bench at room temperature. Finally, HiBiT luminescence signal was acquired on EnVision™ Multilabel Reader (PerkinElmer, Santa Clara, CA, USA).
Quantification of luminescence responses measured in the presence of compound were normalized to a high signal/no degradation control (untreated cells+lytic detection reagent) and a low signal/full degradation control (untreated cells, no lytic detection reagent). Data were analyzed with a 4-parameter logistic fit to generate sigmoidal dose-response curves. […] The Emax, or maximum effect of each compound, represents the amount of residual protein remaining in the cell following compound treatment.

[1] = A375.10 cells, Emax = amount of residual protein remaining in the cell after compound treatment

BRAF^V600E protein, sequence (P15056 whole entry V600E): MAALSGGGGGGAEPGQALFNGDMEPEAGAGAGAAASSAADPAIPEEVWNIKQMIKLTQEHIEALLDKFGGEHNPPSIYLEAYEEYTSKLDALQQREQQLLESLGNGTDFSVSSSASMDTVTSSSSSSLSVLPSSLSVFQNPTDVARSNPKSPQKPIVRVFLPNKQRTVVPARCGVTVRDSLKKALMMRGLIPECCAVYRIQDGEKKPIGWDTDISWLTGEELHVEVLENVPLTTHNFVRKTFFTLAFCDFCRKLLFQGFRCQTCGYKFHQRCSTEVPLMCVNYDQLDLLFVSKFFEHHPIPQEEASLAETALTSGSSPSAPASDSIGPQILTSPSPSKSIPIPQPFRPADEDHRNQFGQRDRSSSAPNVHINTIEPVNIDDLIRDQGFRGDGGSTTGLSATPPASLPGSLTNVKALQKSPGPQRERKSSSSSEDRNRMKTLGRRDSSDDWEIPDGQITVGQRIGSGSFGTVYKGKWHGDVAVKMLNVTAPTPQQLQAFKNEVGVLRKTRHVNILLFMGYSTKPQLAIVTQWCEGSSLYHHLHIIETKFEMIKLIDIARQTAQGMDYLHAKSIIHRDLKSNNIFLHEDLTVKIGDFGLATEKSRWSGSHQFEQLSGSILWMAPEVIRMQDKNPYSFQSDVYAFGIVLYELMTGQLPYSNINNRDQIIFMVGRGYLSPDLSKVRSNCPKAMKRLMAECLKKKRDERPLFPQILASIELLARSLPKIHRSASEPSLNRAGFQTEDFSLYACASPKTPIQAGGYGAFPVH

Structure (SMILES) | DC50 [nM] | Emax [1] [%] | HiBit 24 h Emax [1] [%]
CCN(C)S(=O)(=O)Nc1ccc(F)c(C(=O)c2c[nH]c3ncc(-c4cnc(N5CCN(C(=O)CC6(O)CCN(c7ccc(C8CCC(=O)NC8=O)cc7F)CC6)CC5)nc4)cc23)c1F (racemic) [Example 158, 5-[2-[4-[2-[1-[4-(2,6-dioxo-3-piperidyl)-2-fluoro-phenyl]-4-hydroxy-4-piperidyl]acetyl]piperazin-1-yl]pyrimidin-5-yl]-3-[3-[[ethyl(methyl)sulfamoyl]amino]-2,6-difluoro-benzoyl]-1H-pyrrolo[2,3-b]pyridine] | 2.73 | 9.38 | 
CCN(C)S(=O)(=O)Nc1ccc(F)c(C(=O)c2c[nH]c3ncc(-c4ccc(N5C[C@H]6CC[C@@H](C5)N6C(=O)CN5CCC(c6ccc(NC7CCC(=O)NC7=O)cc6)CC5)nc4)cc23)c1F (mixture of isomers) [Example A71, 3-[3-[[Ethyl(methyl)sulfamoyl]amino]-2,6-difluorobenzoyl]-5-[6-[rac-(1R,5S)-8-[2-[4-[4-[(2,6-dioxopiperidin-3-yl)amino]phenyl]piperidin-1-yl]acetyl]-3,8-diazabicyclo[3.2.1]octan-3-yl]pyridin-3-yl]-1H-pyrrolo[2,3-b]pyridine] | 28 | 23 | 
O=C1CCC(Nc2ccc(C3CCN(CC(=O)N4[C@@H]5CCC[C@H]4CN(c4ccc(-c6cnc7[nH]cc(C(=O)c8c(F)ccc(NS(=O)(=O)N9CCCC9)c8F)c7c6)cn4)C5)CC3)cc2)C(=O)N1 (mixture of isomers) [Example A84, N-[2,4-Difluoro-3-[5-[6-[rac-(1R,5S)-9-[2-[4-[4-[(2,6-dioxopiperidin-3-yl)amino]phenyl]piperidin-1-yl]acetyl]-3,9-diazabicyclo[3.3.1]nonan-3-yl]pyridin-3-yl]-1H-pyrrolo[2,3-b]pyridine-3-carbonyl]phenyl]pyrrolidine-1-sulfonamide] | 11 | 11 | 
CCN(C)S(=O)(=O)Nc1ccc(F)c(C(=O)c2c[nH]c3ncc(-c4cnc(N5CCN(C(=O)CC6CCC(c7ccc(NC8CCC(=O)NC8=O)cc7)CC6)CC5)nc4)cc23)c1F (single isomer, unassigned) [Example 35, 5-[2-[4-[2-[4-[4-[(2,6-dioxo-3-piperidyl)amino]phenyl]cyclohexyl]acetyl]piperazin-1-yl]pyrimidin-5-yl]-3-[3-[[ethyl(methyl)sulfamoyl]amino]-2,6-difluoro-benzoyl]-1H-pyrrolo[2,3-b]pyridine] | 25 | 23.1 | 
CCN(C)S(=O)(=O)Nc1ccc(F)c(C(=O)c2c[nH]c3ncc(-c4cnc(N5CCN(C(=O)CC6CCC(c7ccc(NC8CCC(=O)NC8=O)cc7)CC6)CC5)nc4)cc23)c1F (single isomer, unassigned) [Example 36, 5-[2-[4-[2-[4-[4-[(2,6-dioxo-3-piperidyl)amino]phenyl]cyclohexyl]acetyl]piperazin-1-yl]pyrimidin-5-yl]-3-[3-[[ethyl(methyl)sulfamoyl]amino]-2,6-difluoro-benzoyl]-1H-pyrrolo[2,3-b]pyridine] | 21 |  | 16.12
[2H][C@@]1(c2ccc(N3CCC(O)(CC(=O)N4CCN(c5ncc(-c6cnc7[nH]cc(C(=O)c8c(F)ccc(NS(=O)(=O)N(C)CC)c8F)c7c6)cn5)CC4)CC3)c(F)c2)CCC(=O)NC1=O (single isomer, unassigned) [Example 158c] | 1.99 | 7.84 | 
[2H][C@]1(c2ccc(N3CCC(O)(CC(=O)N4CCN(c5ncc(-c6cnc7[nH]cc(C(=O)c8c(F)ccc(NS(=O)(=O)N(C)CC)c8F)c7c6)cn5)CC4)CC3)c(F)c2)CCC(=O)NC1=O (single isomer, unassigned) [Example 158d] | 205 | 11.6 | 
CCN(C)S(=O)(=O)Nc1ccc(F)c(C(=O)c2c[nH]c3ncc(-c4cnc(N5CCN(C(=O)CC6(O)CCN(c7ccc(N[C@H]8CCC(=O)NC8=O)cc7F)CC6)CC5)nc4)cc23)c1F (single isomer, unassigned) [Example 166] | 2.82 | 8.9 | 
CCN(C)S(=O)(=O)Nc1ccc(F)c(C(=O)c2c[nH]c3ncc(-c4cnc(N5CCN(C(=O)CN6CCC(c7ccc(N[C@@H]8CCC(=O)NC8=O)cc7)CC6)CC5)nc4)cc23)c1F (single isomer, unassigned) [Example A103] | 4 | 6 | 
CCN(C)S(=O)(=O)Nc1ccc(F)c(C(=O)c2c[nH]c3ncc(-c4cnc(N5CCN(C(=O)CN6CCC(c7ccc(N[C@H]8CCC(=O)NC8=O)cc7)CC6)CC5)nc4)cc23)c1F (single isomer, unassigned) [Example A111] | 4 | 7 | 
CCN(C)S(=O)(=O)Nc1ccc(F)c(C(=O)c2c[nH]c3ncc(-c4ccc(N5CCN(C(=O)CN6CCC(c7ccc(NC8CCC(=O)NC8=O)cc7)C(F)(F)C6)CC5)nc4)cc23)c1F (stereo in doubt) [Example 77, 5-[6-[4-[2-[(4R)-4-[4-[(2,6-dioxo-3-piperidyl)amino]phenyl]-3,3-difluoro-1-piperidyl]acetyl]piperazin-1-yl]-3-pyridyl]-3-[3-[[ethyl(methyl)sulfamoyl]amino]-2,6-difluoro-benzoyl]-1H-pyrrolo[2,3-b]pyridine] | 3.49 | 9.19 | 
CCCS(=O)(=O)Nc1ccc(F)c(C(=O)c2c[nH]c3ncc(-c4cnc(N5CCN(C(=O)CN6CCC(c7ccc(NC8CCC(=O)NC8=O)cc7)CC6)CC5)nc4)cc23)c1F (stereo not drawn) [Example 1, N-[3-[5-[2-[4-[2-[4-[4-[(2,6-dioxo-3-piperidyl)amino]phenyl]-1-piperidyl]acetyl]piperazin-1-yl]pyrimidin-5-yl]-1H-pyrrolo[2,3-b]pyridine-3-carbonyl]-2,4-difluoro-phenyl]propane-1-sulfonamide] | 0.79 | 7.81 | 
CCCS(=O)(=O)Nc1ccc(F)c(C(=O)c2c[nH]c3ncc(-c4cnc(N5CCN(C(=O)CN6CCC(c7ccc(OC8CCC(=O)NC8=O)cc7)CC6)CC5)nc4)cc23)c1F (stereo not drawn) [Example 2, N-[3-[5-[2-[4-[2-[4-[4-[(2,6-dioxo-3-piperidyl)oxy]phenyl]-1-piperidyl]acetyl]piperazin-1-yl]pyrimidin-5-yl]-1H-pyrrolo[2,3-b]pyridine-3-carbonyl]-2,4-difluoro-phenyl]propane-1-sulfonamide] | 12.2 | 7.81 | 
CCCS(=O)(=O)Nc1ccc(F)c(C(=O)c2c[nH]c3ncc(-c4ccc(N5CCN(C(=O)CN6CCC(c7ccc(NC8CCC(=O)NC8=O)cc7)CC6)CC5)nc4)cc23)c1F (stereo not drawn) [Example 3, N-[3-[5-[6-[4-[2-[4-[4-[(2,6-dioxo-3-piperidyl)amino]phenyl]-1-piperidyl]acetyl]piperazin-1-yl]-3-pyridyl]-1H-pyrrolo[2,3-b]pyridine-3-carbonyl]-2,4-difluoro-phenyl]propane-1-sulfonamide] | 3.04 | 9.6 | 
CC(C)S(=O)(=O)Nc1ccc(F)c(C(=O)c2c[nH]c3ncc(-c4cnc(N5CCN(C(=O)CN6CCC(c7ccc(NC8CCC(=O)NC8=O)cc7)CC6)CC5)nc4)cc23)c1F (stereo not drawn) [Example 5, N-[3-[5-[2-[4-[2-[4-[4-[(2,6-dioxo-3-piperidyl)amino]phenyl]-1-piperidyl]acetyl]piperazin-1-yl]pyrimidin-5-yl]-1H-pyrrolo[2,3-b]pyridine-3-carbonyl]-2,4-difluoro-phenyl]propane-2-sulfonamide] | 3.94 | 8.8 | 
CC(C)S(=O)(=O)Nc1ccc(F)c(C(=O)c2c[nH]c3ncc(-c4cnc(N5CCN(C(=O)CN6CCC(c7ccc(NC8CCC(=O)NC8=O)cc7F)CC6)CC5)nc4)cc23)c1F (stereo not drawn) [Example 6, N-[3-[5-[2-[4-[2-[4-[4-[(2,6-dioxo-3-piperidyl)amino]-2-fluoro-phenyl]-1-piperidyl]acetyl]piperazin-1-yl]pyrimidin-5-yl]-1H-pyrrolo[2,3-b]pyridine-3-carbonyl]-2,4-difluoro-phenyl]propane-2-sulfonamide] | 5.59 | 7.96 | 
CC(C)S(=O)(=O)Nc1ccc(F)c(C(=O)c2c[nH]c3ncc(-c4cnc(N5CCN(C(=O)CN6CCC(c7ccc(OC8CCC(=O)NC8=O)cc7)CC6)CC5)nc4)cc23)c1F (stereo not drawn) [Example 7, N-[3-[5-[2-[4-[2-[4-[4-[(2,6-dioxo-3-piperidyl)oxy]phenyl]-1-piperidyl]acetyl]piperazin-1-yl]pyrimidin-5-yl]-1H-pyrrolo[2,3-b]pyridine-3-carbonyl]-2,4-difluoro-phenyl]propane-2-sulfonamide] | 12.5 | 10.3 | 
CC(C)S(=O)(=O)Nc1ccc(F)c(C(=O)c2c[nH]c3ncc(-c4cnc(N5CCN(C(=O)CN6CCC(c7ccc(C8CCC(=O)NC8=O)cc7)CC6)CC5)nc4)cc23)c1F (stereo not drawn) [Example 8, N-[3-[5-[2-[4-[2-[4-[4-(2,6-dioxo-3-piperidyl)phenyl]-1-piperidyl]acetyl]piperazin-1-yl]pyrimidin-5-yl]-1H-pyrrolo[2,3-b]pyridine-3-carbonyl]-2,4-difluoro-phenyl]propane-2-sulfonamide] | 4.67 | 2.37 | 
